Measured values: patent publication EP2327700A1, “Dialkyl triazinamines and use thereof for combating undesired plant growth” (Bayer CropScience AG, priority 2009, dated 2011)

Key:
[1] = logp (HCOOH) determination; assay type: physicochemical
Veronica persica [2] = test: Herbicidal action post-emergence (greenhouse pot test); assay type: in vivo; settings: 320 g/ha, visual rating after ca. 3 weeks vs untreated controls
Source text: (§1) • 1. Herbizide Wirkung bzw. Kulturpflanzenverträglichkeit im Vorauflauf Samen von mono- bzw. dikotylen Unkraut- bzw. Kulturpflanzen werden in Holzfasertöpfen in sandiger Lehmerde ausgelegt und mit Erde abgedeckt. Die in Form von benetzbaren Pulvern (WP) oder als Emulsionskonzentrate (EC) formulierten erfindungsgemäßen Verbindungen werden dann als wäßrige Suspension bzw. Emulsion mit einer Wasseraufwandmenge von umgerechnet 600 bis 800 I/ha unter Zusatz von 0,2% Netzmittel auf die Oberfläche der Abdeckerde appliziert. Nach der Behandlung werden die Töpfe im Gewächshaus aufgestellt und unter guten Wachstumsbedingungen für die Testpflanzen gehalten. Die visuelle Bonitur der Schäden an den Versuchspflanzen erfolgt nach einer Versuchszeit von 3 Wochen im Vergleich zu unbehandelten Kontrollen (herbizide Wirkung in Prozent (%): 100% Wirkung = Pflanzen sind abgestorben, 0 % Wirkung = wie Kontrollpflanzen). Dabei zeigen beispielsweise die Verbindungen Nr. I-16, I-17, I-48, I-50, I-51, I-52, I-54 und I-63 bei einer Aufwandmenge von 320 g/ha jeweils eine mindestens 80%-ige Wirkung gegen Lolium multiflorum, Setaria viridis und Stellaria media. Die Verbindungen Nr. I-64, I-65, I-66, I-68, I-69 und I-70 zeigen bei einer Aufwandmenge von 320 g/ha jeweils eine mindestens 80%-ige Wirkung gegen Amaranthus retroflexus, Pharbitis purpureumund Veronica persica. • 2. Herbizide Wirkung bzw. Kulturpflanzenverträglichkeit im Nachauflauf Samen von mono- bzw. dikotylen Unkraut- bzw. Kulturpflanzen werden in Holzfasertöpfen in sandigem Lehmboden ausgelegt, mit Erde abgedeckt und im Gewächshaus unter guten Wachstumsbedingungen angezogen. 2 bis 3 Wochen nach der Aussaat werden die Versuchspflanzen im Einblattstadium behandelt. Die in Form von benetzbaren Pulvern (WP) oder als Emulsionskonzentrate (EC) formulierten erfindungsgemäßen Verbindungen werden dann als wäßrige Suspension bzw. Emulsion mit einer Wasseraufwandmenge von umgerechnet 600 bis 800 I/ha unter Zusatz von 0,2% Netzmittel auf die grünen Pflanzenteile gesprüht. Nach ca. 3 Wochen Standzeit der Versuchspflanzen im Gewächshaus unter optimalen Wachstumsbedingungen wird die Wirkung der Präparate visuell im Vergleich zu unbehandelten Kontrollen bonitiert (herbizide Wirkung in Prozent (%): 100% Wirkung = Pflanzen sind abgestorben, 0 % Wirkung = wie Kontrollpflanzen). Dabei zeigen beispielsweise die Verbindungen Nr. I-50, I-52, I-54 und I-64 bei einer Aufwandmenge von 320 g/ha jeweils eine mindestens 80%-ige Wirkung gegen Alopecurus myosuroides, Setaria viridis und Stellaria media. Die Verbindungen Nr. I-51, I-63, I-66, I-69 und I-70 zeigen bei einer Aufwandmenge von 320 g/ha jeweils eine mindestens 80%-ige Wirkung gegen Alopecurus myosuroides, Veronica persica und Viola tricolor.

Alopecurus myosuroides = test: as above; assay type: in vivo; settings: 320 g/ha, visual rating after ca. 3 weeks vs untreated controls
Source text: as §1

Viola tricolor = test: as above; assay type: in vivo; settings: 320 g/ha, visual rating after ca. 3 weeks vs untreated controls
Source text: as §1

Stellaria media [3] = test: Herbicidal action pre-emergence (greenhouse pot test); assay type: in vivo; settings: 320 g/ha, visual rating after 3 weeks vs untreated controls
Source text: as §1

Setaria viridis [4] = test: as above; assay type: in vivo; settings: 320 g/ha, visual rating after 3 weeks vs untreated controls
Source text: as §1

Lolium multiflorum = test: as above; assay type: in vivo; settings: 320 g/ha, visual rating after 3 weeks vs untreated controls
Source text: as §1

Stellaria media [5] = test: Herbicidal action post-emergence (greenhouse pot test); assay type: in vivo; settings: 320 g/ha, visual rating after ca. 3 weeks vs untreated controls
Source text: as §1

Setaria viridis [6] = test: as above; assay type: in vivo; settings: 320 g/ha, visual rating after ca. 3 weeks vs untreated controls
Source text: as §1

Pharbitis purpureum = test: Herbicidal action pre-emergence (greenhouse pot test); assay type: in vivo; settings: 320 g/ha, visual rating after 3 weeks vs untreated controls
Source text: as §1

Veronica persica [7] = test: as above; assay type: in vivo; settings: 320 g/ha, visual rating after 3 weeks vs untreated controls
Source text: as §1

Amaranthus retroflexus = test: as above; assay type: in vivo; settings: 320 g/ha, visual rating after 3 weeks vs untreated controls
Source text: as §1

Cc1nc(N[C@H]2c3cc(Br)ccc3C[C@@H]2C)nc(C(F)(F)Cl)n1 [I-81]
chromatographic logP ([1]; hcooh): 3.8

Cc1ccc2c(c1)[C@H](Nc1nc(C)nc(C)n1)[C@@H](C)C2 [I-63]
herbizide Wirkung in Prozent (%) (Veronica persica [2]): ≥ 80% | herbizide Wirkung in Prozent (%) (Alopecurus myosuroides): ≥ 80% | herbizide Wirkung in Prozent (%) (Viola tricolor): ≥ 80% | herbizide Wirkung in Prozent (%) (Stellaria media [3]): ≥ 80% | herbizide Wirkung in Prozent (%) (Setaria viridis [4]): ≥ 80% | herbizide Wirkung in Prozent (%) (Lolium multiflorum): ≥ 80% | chromatographic logP ([1]; hcooh): 1.59

Cc1nc(N[C@@H]2CCc3ccccc32)nc(C(F)F)n1 [I-91]
chromatographic logP ([1]; hcooh): 2.69

Cc1nc(N[C@@H]2CCCc3ccccc32)nc(C(F)(F)Cl)n1 [I-67]
chromatographic logP ([1]; hcooh): 3.9

Cc1ccc2c(c1)[C@H](Nc1nc(C)nc(C(F)(F)F)n1)[C@@H](C)C2 [I-87]
chromatographic logP ([1]; hcooh): 4.21

Cc1nc(NC2CCc3ccc(C(C)C)cc32)nc(C(F)F)n1 (stereo not drawn) [I-100]
chromatographic logP ([1]; hcooh): 3.79

Cc1nc(N[C@H]2c3cc(Br)ccc3C[C@@H]2C)nc(C(F)F)n1 [I-235, N-[trans-6-Brom-2-methyl-2,3-dihydro-1H-inden-1-yl]-4-(difluoromethyl)-6-methyl-1,3,5-triazin-2-amin]
chromatographic logP ([1]; hcooh): 3.55

Cc1nc(C)nc(NC2CCc3c(C)cccc32)n1 (stereo not drawn) [I-168, 4,6-Dimethyl-N-(4-methyl-2,3-dihydro-1H-inden-1-yl)-1,3,5-triazin-2-amine]
chromatographic logP ([1]; HCOOH (formic acid)): 1.36

Cc1nc(N[C@@H]2CCOc3ccccc32)nc(C(F)(F)Cl)n1 [I-84]
chromatographic logP ([1]; hcooh): 3.11

CCc1nc(C)nc(N[C@H]2c3cc(C)ccc3C[C@@H]2C)n1 [I-52]
herbizide Wirkung in Prozent (%) (Stellaria media [5]): ≥ 80% | herbizide Wirkung in Prozent (%) (Setaria viridis [6]): ≥ 80% | herbizide Wirkung in Prozent (%) (Alopecurus myosuroides): ≥ 80% | herbizide Wirkung in Prozent (%) (Stellaria media [3]): ≥ 80% | herbizide Wirkung in Prozent (%) (Setaria viridis [4]): ≥ 80% | herbizide Wirkung in Prozent (%) (Lolium multiflorum): ≥ 80% | chromatographic logP ([1]; hcooh): 1.85

Cc1nc(NC2CCOc3ccc(C(C)C)cc32)nc(C(F)F)n1 (stereo not drawn) [I-125]
chromatographic logP ([1]; hcooh): 3.41

COc1ccc2c(c1)CCCC2Nc1nc(C)nc(C(F)F)n1 (stereo not drawn) [I-159]
chromatographic logP ([1]; hcooh): 2.9

Cc1ccc2c(c1)[C@H](Nc1nc(C)nc(C(C)C)n1)[C@@H](C)C2 [I-50]
herbizide Wirkung in Prozent (%) (Stellaria media [5]): ≥ 80% | herbizide Wirkung in Prozent (%) (Setaria viridis [6]): ≥ 80% | herbizide Wirkung in Prozent (%) (Alopecurus myosuroides): ≥ 80% | herbizide Wirkung in Prozent (%) (Stellaria media [3]): ≥ 80% | herbizide Wirkung in Prozent (%) (Setaria viridis [4]): ≥ 80% | herbizide Wirkung in Prozent (%) (Lolium multiflorum): ≥ 80% | chromatographic logP ([1]; hcooh): 2.16

Cc1nc(NC2CC(C)(C)Oc3cc(Cl)c(F)cc32)nc(C(F)(F)Cl)n1 (stereo not drawn) [I-82]
chromatographic logP ([1]; hcooh): 4.32

Cc1ccc2c(c1)[C@H](Nc1nc(C)nc(C(Cl)(Cl)Cl)n1)[C@@H](C)C2 [I-70, N-[(1R,2S)-2,6-Dimethyl-2,3-dihydro-1H-inden-1-yl]-4-methyl-6-(trichloromethyl)-1,3,5-triazin-2-amin]
herbizide Wirkung in Prozent (%) (Veronica persica [2]): ≥ 80% | herbizide Wirkung in Prozent (%) (Alopecurus myosuroides): ≥ 80% | herbizide Wirkung in Prozent (%) (Viola tricolor): ≥ 80% | herbizide Wirkung in Prozent (%) (Pharbitis purpureum): ≥ 80% | herbizide Wirkung in Prozent (%) (Veronica persica [7]): ≥ 80% | herbizide Wirkung in Prozent (%) (Amaranthus retroflexus): ≥ 80% | chromatographic logP ([1]; HCOOH (formic acid)): 4.85

COc1ccc2c(c1)C(Nc1nc(C)nc(C(F)(F)F)n1)CCO2 (stereo not drawn) [I-237]
chromatographic logP ([1]; hcooh): 2.93

Cc1ccc2c(c1)OC(C)(C)CC2Nc1nc(C)nc(C(F)F)n1 (stereo not drawn) [I-130]
chromatographic logP ([1]; hcooh): 3.3

CCc1ccc2c(c1)C(Nc1nc(C)nc(C)n1)CCO2 (stereo not drawn) [I-238]
chromatographic logP ([1]; hcooh): 1.51

Cc1ccc2c(c1)[C@H](Nc1nc(C)nc(C(F)(F)Cl)n1)[C@@H](C)C2 [I-66]
herbizide Wirkung in Prozent (%) (Veronica persica [2]): ≥ 80% | herbizide Wirkung in Prozent (%) (Alopecurus myosuroides): ≥ 80% | herbizide Wirkung in Prozent (%) (Viola tricolor): ≥ 80% | herbizide Wirkung in Prozent (%) (Pharbitis purpureum): ≥ 80% | herbizide Wirkung in Prozent (%) (Veronica persica [7]): ≥ 80% | herbizide Wirkung in Prozent (%) (Amaranthus retroflexus): ≥ 80% | chromatographic logP ([1]; hcooh): 4.36

Cc1nc(NC2CC(C)(C)Oc3cc(Cl)c(F)cc32)nc(C(F)F)n1 (stereo not drawn) [I-95]
chromatographic logP ([1]; hcooh): 4.32

CCc1ccc2c(c1)C(Nc1nc(C)nc(C(F)(F)F)n1)CCO2 (stereo not drawn) [I-135]
chromatographic logP ([1]; hcooh): 3.71

Cc1nc(N[C@@H]2CCCc3ccccc32)nc(C(Cl)(Cl)Cl)n1 [I-71]
chromatographic logP ([1]; hcooh): 4.4

COCc1nc(C)nc(N[C@H]2c3cc(C)ccc3C[C@@H]2C)n1 [I-54, N-[(1R,2S)-2,6-Dimethyl-2,3-dihydro-1H-inden-1-yl]-4-(methoxymethyl)-6-methyl-1,3,5-triazin-2-amin]
herbizide Wirkung in Prozent (%) (Stellaria media [5]): ≥ 80% | herbizide Wirkung in Prozent (%) (Setaria viridis [6]): ≥ 80% | herbizide Wirkung in Prozent (%) (Alopecurus myosuroides): ≥ 80% | herbizide Wirkung in Prozent (%) (Stellaria media [3]): ≥ 80% | herbizide Wirkung in Prozent (%) (Setaria viridis [4]): ≥ 80% | herbizide Wirkung in Prozent (%) (Lolium multiflorum): ≥ 80% | chromatographic logP ([1]; HCOOH (formic acid)): 2.16

Cc1nc(NC2CCc3c(C)cccc32)nc(C(F)(F)Cl)n1 (stereo not drawn) [I-147]
chromatographic logP ([1]; hcooh): 3.98

CCc1ccc2c(c1)C(Nc1nc(C)nc(C(F)F)n1)CCO2 (stereo not drawn) [I-134]
chromatographic logP ([1]; hcooh): 3.1

Cc1nc(N[C@@H]2CCOc3c(F)cccc32)nc(C(F)(F)Cl)n1 [I-83]
chromatographic logP ([1]; hcooh): 3.06

Cc1nc(NC2c3ccc(Cl)cc3CC2C)nc(C(F)F)n1 (stereo not drawn) [I-137]
chromatographic logP ([1]; hcooh): 3.58

Cc1ccc2c(c1)[C@H](Nc1nc(C)nc(C(C)(C)C)n1)[C@@H](C)C2 [I-51]
herbizide Wirkung in Prozent (%) (Veronica persica [2]): ≥ 80% | herbizide Wirkung in Prozent (%) (Alopecurus myosuroides): ≥ 80% | herbizide Wirkung in Prozent (%) (Viola tricolor): ≥ 80% | herbizide Wirkung in Prozent (%) (Stellaria media [3]): ≥ 80% | herbizide Wirkung in Prozent (%) (Setaria viridis [4]): ≥ 80% | herbizide Wirkung in Prozent (%) (Lolium multiflorum): ≥ 80% | chromatographic logP ([1]; hcooh): 3.56

CCOc1ccc2c(c1)C(Nc1nc(C)nc(C(F)F)n1)CCC2 (stereo not drawn) [I-122]
chromatographic logP ([1]; hcooh): 3.34

Cc1ccc2c(c1)[C@H](Nc1nc(C)nc(C(F)F)n1)[C@@H](C)C2 [I-64]
herbizide Wirkung in Prozent (%) (Stellaria media [5]): ≥ 80% | herbizide Wirkung in Prozent (%) (Setaria viridis [6]): ≥ 80% | herbizide Wirkung in Prozent (%) (Alopecurus myosuroides): ≥ 80% | herbizide Wirkung in Prozent (%) (Pharbitis purpureum): ≥ 80% | herbizide Wirkung in Prozent (%) (Veronica persica [7]): ≥ 80% | herbizide Wirkung in Prozent (%) (Amaranthus retroflexus): ≥ 80% | chromatographic logP ([1]; hcooh): 3.44

Cc1cc(C)c2c(c1)C(Nc1nc(C)nc(C)n1)CCC2 (stereo not drawn) [I-17, N2-(5,7-Dimethyl-1,2,3,4-tetrahydro-1-naphthalenyl)-4,6-dimethyl-1,3,5-triazin-2-amine]
herbizide Wirkung in Prozent (%) (Stellaria media [3]): ≥ 80% | herbizide Wirkung in Prozent (%) (Setaria viridis [4]): ≥ 80% | herbizide Wirkung in Prozent (%) (Lolium multiflorum): ≥ 80%

Cc1nc(C)nc(N[C@@H]2CCCc3ccccc32)n1 [I-78, 4,6-Dimethyl-N-[(1R)-1,2,3,4-tetrahydronaphthalen-1-yl]-1,3,5-triazin-2-amine]
chromatographic logP ([1]; HCOOH (formic acid)): 1.35

Cc1ccc2c(c1)[C@H](Nc1nc(C)nc(C(Cl)Cl)n1)[C@@H](C)C2 [I-69]
herbizide Wirkung in Prozent (%) (Veronica persica [2]): ≥ 80% | herbizide Wirkung in Prozent (%) (Alopecurus myosuroides): ≥ 80% | herbizide Wirkung in Prozent (%) (Viola tricolor): ≥ 80% | herbizide Wirkung in Prozent (%) (Pharbitis purpureum): ≥ 80% | herbizide Wirkung in Prozent (%) (Veronica persica [7]): ≥ 80% | herbizide Wirkung in Prozent (%) (Amaranthus retroflexus): ≥ 80% | chromatographic logP ([1]; hcooh): 4.13

CCc1nc(C)nc(N[C@@H]2CCCc3ccccc32)n1 [I-53]
chromatographic logP ([1]; hcooh): 1.48
